Legend:
GRK2 = molecular target: T1, GRK2 (Bos taurus, UniProt P21146); experiment: GRK2 kinase activity in vitro (casein substrate); type: biochemical; details: 0.5 μM
T1 construct: made in house; host or cells: Sf9 cells (baculovirus)
T1 sequence (P21146 1-689): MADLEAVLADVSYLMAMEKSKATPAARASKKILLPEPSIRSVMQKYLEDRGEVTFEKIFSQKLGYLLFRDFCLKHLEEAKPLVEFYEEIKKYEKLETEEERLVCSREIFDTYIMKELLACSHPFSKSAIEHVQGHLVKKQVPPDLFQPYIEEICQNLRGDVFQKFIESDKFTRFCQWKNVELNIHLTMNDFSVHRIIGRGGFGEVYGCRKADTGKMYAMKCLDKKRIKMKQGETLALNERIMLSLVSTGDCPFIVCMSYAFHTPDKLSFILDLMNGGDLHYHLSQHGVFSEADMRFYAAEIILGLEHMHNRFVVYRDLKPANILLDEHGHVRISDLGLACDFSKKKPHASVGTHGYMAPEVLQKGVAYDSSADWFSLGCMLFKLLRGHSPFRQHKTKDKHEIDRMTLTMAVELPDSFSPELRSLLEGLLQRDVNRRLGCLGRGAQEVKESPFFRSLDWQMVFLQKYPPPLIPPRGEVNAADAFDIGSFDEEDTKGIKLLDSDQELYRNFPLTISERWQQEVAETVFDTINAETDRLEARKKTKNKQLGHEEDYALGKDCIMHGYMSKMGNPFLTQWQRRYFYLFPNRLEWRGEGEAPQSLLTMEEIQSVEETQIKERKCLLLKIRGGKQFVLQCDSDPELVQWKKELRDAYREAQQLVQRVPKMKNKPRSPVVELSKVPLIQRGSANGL

3T3-L1 cells [1] = experiment: adipocyte differentiation of 3T3-L1 (Oil Red staining, adipocyte count); type: cell-based; details: 10 μM; insulin-induced differentiation
Description: 3T3L1 lines stably transfected with pCDNA3-GRK2 and pCDNA3-GRK2K220R were made. GRK2 (anti-GRK2) expression controls obtained in cell lines, compared to 3T3L1 levels, are included. The cells were subjected to a standard differentiation treatment and on day 15 of the latter, the cells were fixed with formalin and stained with Oil Red, a lipophilic coloring which binds to the fats accumulated by the adipocytes. The cells with adipocytic phenotype (in red) were counted under microscope in a total of 25 fields. Representative photographs of two independent experiments are shown in duplicate. A photo of the 3T3L1 cells, free of stimulation with insulin during the differentiation process (control), is also included. The graph reflects the adipocyte count (±SEM) in these experiments.
The cell culture was carried out with 10% DMEM medium of NCS serum. However, the entire differentiation process which is described below must be performed in depleted AXC serum (ion exchange resin) by means of successive adsorptions of fetal calf serum on an anion exchange resin and on active carbon. AXC serum was provided by the kitchen service of the Instituto of Investigaciones Biomédicas (Biomedical Research Institute). The cells are grown until their confluence and are plated (5×10^5 in P-100) in DMEM-10% AXC medium, supplemented with 4 μM of biotin (Sigma). The following day, the medium is replaced with fresh medium. The cells are grown another three days, until confluence is reached again, that day is called day “0”. On day 0 of differentiation, the cells are cultured in a medium containing: 0.5 μM dexamethasone (Sigma), 0.5 mM 3-isobutyl-1-methylxanthine (IMBX, of Sigma) and 1 μM insulin (Sigma) and in which they will remain for another three days. […] From day 6 to day 15, the adipogenesis was analyzed by staining with Oil Red, a red coloring of lipophilic constitution which binds to the drops of fat accumulated by the adipocytes in their cytoplasm. […] The cells are counted in a total of 25 fields per each experimental plate.

3T3-L1 cells [2] = details: prior demonstration of p38 involvement; cited from earlier work

## C[S+]([O-])c1ccc(-c2nc(-c3ccncc3)c(-c3ccc(F)cc3)[nH]2)cc1 (stereo not drawn) [SB203580]
GRK2
  effect on kinase activity of GRK2: does not affect the kinase activity of GRK2
3T3-L1 cells [1]
  effect on adipogenesis: reverses the entire adipogenesis
3T3-L1 cells [2]
  effect on differentiation into adipocytes: blocked
